Assay results reported in patent US6737383B1, “Herbicidal oxadiazolidines” (priority 1999, dated 2004).

Experiments:
purple nutsedge = test: Test B pre/postemergence purple nutsedge; assay type: in vivo, Cyperus rotundus; details: for Nutsedge plant response rating: scale of 0 to 10 where 0 is no effect and 10 is complete control
Method in brief: (§1)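 Herbicidal effect was estimated by eye on a ten-point control scale after plants spent twelve to sixteen days in a greenhouse following soil or foliar treatment. Foliar sprays targeted plants at one to four leaves; all doses were formulated in a non-phytotoxic solvent with surfactant.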

surinam grass = test: Test B pre/postemergence surinam grass; assay type: in vivo, Brachiaria decumbens; details: for B. signalgrass plant response rating: scale of 0 to 10 where 0 is no effect and 10 is complete control
Method in brief: as §1

duck salad = test: Test B flood test duck salad; assay type: in vivo, Heteranthera limosa
Method in brief: (§2)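 Plants were grown to the 2-leaf stage before treatment with test chemical, then held in a greenhouse for twelve to sixteen days. Injury was visually rated against untreated controls on a 0–10 scale, where 0 is no effect and 10 is complete control.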

morningglory = test: Test B pre/postemergence morningglory; assay type: in vivo, Ipomoea hederacea; details: for Morningglory plant response rating: scale of 0 to 10 where 0 is no effect and 10 is complete control
Method in brief: as §1

pigweed = test: Test B pre/postemergence pigweed; assay type: in vivo, Amaranthus retroflexus; details: for Redroot pigweed plant response rating: scale of 0 to 10 where 0 is no effect and 10 is complete control
Method in brief: as §1

wheat = test: Test B pre/postemergence wheat; assay type: in vivo, Triticum aestivum; details: for Wheat plant response rating: scale of 0 to 10 where 0 is no effect and 10 is complete control
Method in brief: as §1

corn = test: Test B pre/postemergence corn; assay type: in vivo, Zea mays; details: for Corn plant response rating: scale of 0 to 10 where 0 is no effect and 10 is complete control
Method in brief: as §1

rice = test: Test B flood test rice; assay type: in vivo, Oryza sativa
Method in brief: as §2

soybean = test: Test B pre/postemergence soybean; assay type: in vivo, Glycine max; details: for Soybean plant response rating: scale of 0 to 10 where 0 is no effect and 10 is complete control
Method in brief: as §1

smallflower flatsedge = test: Test B flood test smallflower flatsedge; assay type: in vivo, Cyperus difformis
Method in brief: as §2

wild oat = test: Test B pre/postemergence wild oat; assay type: in vivo, Avena fatua; details: for Wild oats plant response rating: scale of 0 to 10 where 0 is no effect and 10 is complete control
Method in brief: as §1

crabgrass = test: Test B pre/postemergence crabgrass; assay type: in vivo, Digitaria sanguinalis; details: for Crabgrass plant response rating: scale of 0 to 10 where 0 is no effect and 10 is complete control
Method in brief: as §1

giant foxtail = test: Test B pre/postemergence giant foxtail; assay type: in vivo, Setaria faberii; details: for Giant foxtail plant response rating: scale of 0 to 10 where 0 is no effect and 10 is complete control
Method in brief: as §1

velvetleaf = test: Test B pre/postemergence velvetleaf; assay type: in vivo, Abutilon theophrasti; details: for Velvetleaf plant response rating: scale of 0 to 10 where 0 is no effect and 10 is complete control
Method in brief: as §1

blackgrass = test: Test B pre/postemergence blackgrass; assay type: in vivo, Alopecurus myosuroides; details: for Blackgrass plant response rating: scale of 0 to 10 where 0 is no effect and 10 is complete control
Method in brief: as §1

bedstraw = test: Test B pre/postemergence bedstraw; assay type: in vivo, Galium aparine; details: Postemergence
Method in brief: as §1

[1] = Postemergence, Rate 125 g/ha, scale 0 to 10, 0 is no effect, 10 is complete control
[2] = Postemergence, Rate 250 g/ha, scale 0 to 10, 0 is no effect, 10 is complete control
[3] = Preemergence, Rate 62 g/ha, scale 0 to 10 (0 no effect, 10 complete control)
[4] = Rate 500 g/ha, Postemergence, scale 0 to 10, 0 no effect, 10 complete control
[5] = Rate 62 g/ha, flood test species, Pre-emergence, visual evaluation after twelve to sixteen days
[6] = Rate 125 g/ha, under heading Pre-emergence, flood test species, visual evaluation after twelve to sixteen days
[7] = Rate 250 g/ha, Pre-emergence, flood-test species, scale 0 to 10, 0 is no effect, 10 is complete control
[8] = Rate 500 g/ha, Pre-emergence, flood test species, scale 0 to 10 (0 no effect, 10 complete control)

CC(C)N(C(=O)n1oc(=O)n(N2C(C)CCCC2C)c1=O)c1ccc(F)cc1 (centres unmarked) [Compound 382]
9: Crabgrass plant response rating (crabgrass; Preemergence, Rate 250 g/ha) | Plant response rating, Giant foxtail (giant foxtail; [3]) | Giant foxtail plant response rating (0 to 10 scale) (giant foxtail; Preemergence, Rate 125 g/ha) | Giant foxtail plant response rating (giant foxtail; Preemergence, Rate 250 g/ha)
6: B. signalgrass plant response rating (surinam grass; Preemergence, Rate 500 g/ha) | Plant response rating, Crabgrass (crabgrass; [3])
7: Crabgrass plant response rating (0 to 10 scale) (crabgrass; Preemergence, Rate 125 g/ha) | Blackgrass plant response rating (blackgrass; Preemergence, Rate 500 g/ha)
5: Plant response rating, Soybean (soybean; [4])
0: Plant response rating, Nutsedge (purple nutsedge; [1]) | Plant response rating, Nutsedge (purple nutsedge; [2]) | Plant response rating, Nutsedge (purple nutsedge; [3]) | Nutsedge plant response rating (0 to 10 scale) (purple nutsedge; Preemergence, Rate 125 g/ha) | Nutsedge plant response rating (purple nutsedge; Preemergence, Rate 250 g/ha) | Nutsedge plant response rating (purple nutsedge; Preemergence, Rate 500 g/ha) | Nutsedge plant response rating (purple nutsedge; Rate 62 g/ha, Postemergence) | Plant response rating, Nutsedge (purple nutsedge; [4]) | Plant response rating, B. signalgrass (surinam grass; [1]) | Plant response rating, B. signalgrass (surinam grass; [2]) | Plant response rating, B. signalgrass (surinam grass; [3]) | B. signalgrass plant response rating (0 to 10 scale, 0 is no effect, 10 is complete control) (surinam grass; Preemergence, Rate 125 g/ha) | B. signalgrass plant response rating (surinam grass; Rate 62 g/ha, Postemergence) | Plant response rating, B. signalgrass (surinam grass; [4]) | Plant response rating, Ducksalad (0 to 10 scale, 0 is no effect, 10 is complete control) (duck salad; [5]) | Ducksalad plant response rating (0 to 10 scale, 0 is no effect, 10 is complete control) (duck salad; [6]) | Ducksalad plant response rating (duck salad; [7]) | Ducksalad plant response rating (duck salad; [8]) | Plant response rating, Morningglory (morningglory; [1]) | Plant response rating, Morningglory (morningglory; [2]) | Plant response rating, Morningglory (morningglory; [3]) | Morningglory plant response rating (0 to 10 scale) (morningglory; Preemergence, Rate 125 g/ha) | Morningglory plant response rating (morningglory; Preemergence, Rate 250 g/ha) | Morningglory plant response rating (morningglory; Preemergence, Rate 500 g/ha) | Morningglory plant response rating (morningglory; Rate 62 g/ha, Postemergence) | Plant response rating, Morningglory (morningglory; [4]) | Plant response rating, Redroot pigweed (pigweed; [1]) | Plant response rating, Redroot pigweed (pigweed; [2]) | Plant response rating, Redroot pigweed (pigweed; [3]) | Redroot pigweed plant response rating (0 to 10 scale) (pigweed; Preemergence, Rate 125 g/ha) | Redroot pigweed plant response rating (pigweed; Preemergence, Rate 250 g/ha) | Redroot pigweed plant response rating (pigweed; Preemergence, Rate 500 g/ha) | Redroot pigweed plant response rating (pigweed; Rate 62 g/ha, Postemergence) | Plant response rating, Redroot pigweed (pigweed; [4]) | Plant response rating, Wheat (wheat; [1]) | Plant response rating, Wheat (wheat; [2]) | Plant response rating, Wheat (wheat; [3]) | Wheat plant response rating (0 to 10 scale) (wheat; Preemergence, Rate 125 g/ha) | Wheat plant response rating (wheat; Preemergence, Rate 250 g/ha) | Wheat plant response rating (wheat; Preemergence, Rate 500 g/ha) | Wheat plant response rating (wheat; Rate 62 g/ha, Postemergence) | Plant response rating, Wheat (wheat; [4]) | Plant response rating, Corn (corn; [1]) | Plant response rating, Corn (corn; [2]) | Plant response rating, Corn (corn; [3]) | Corn plant response rating (0 to 10 scale) (corn; Preemergence, Rate 125 g/ha) | Corn plant response rating (corn; Preemergence, Rate 250 g/ha) | Corn plant response rating (corn; Rate 62 g/ha, Postemergence) | Plant response rating, Corn (corn; [4]) | Plant response rating, Rice (0 to 10 scale, 0 is no effect, 10 is complete control) (rice; [5]) | Rice plant response rating (0 to 10 scale, 0 is no effect, 10 is complete control) (rice; [6]) | Rice plant response rating (rice; [7]) | Rice plant response rating (rice; [8]) | Plant response rating, Soybean (soybean; [3]) | Soybean plant response rating (0 to 10 scale) (soybean; Preemergence, Rate 125 g/ha) | Soybean plant response rating (soybean; Preemergence, Rate 250 g/ha) | Soybean plant response rating (soybean; Preemergence, Rate 500 g/ha) | Plant response rating, S. Flatsedge (0 to 10 scale, 0 is no effect, 10 is complete control) (smallflower flatsedge; [5]) | S. Flatsedge plant response rating (0 to 10 scale, 0 is no effect, 10 is complete control) (smallflower flatsedge; [6]) | S. Flatsedge plant response rating (smallflower flatsedge; [7]) | S. Flatsedge plant response rating (smallflower flatsedge; [8]) | Plant response rating, Wild oats (wild oat; [1]) | Plant response rating, Wild oats (wild oat; [2]) | Plant response rating, Wild oats (wild oat; [3]) | Wild oats plant response rating (0 to 10 scale) (wild oat; Preemergence, Rate 125 g/ha) | Wild oats plant response rating (wild oat; Preemergence, Rate 250 g/ha) | Wild oats plant response rating (wild oat; Rate 62 g/ha, Postemergence) | Plant response rating, Wild oats (wild oat; [4]) | Plant response rating, Crabgrass (crabgrass; [1]) | Plant response rating, Crabgrass (crabgrass; [2]) | Crabgrass plant response rating (crabgrass; Rate 62 g/ha, Postemergence) | Giant foxtail plant response rating (giant foxtail; Rate 62 g/ha, Postemergence) | Plant response rating, Velvetleaf (velvetleaf; [1]) | Plant response rating, Velvetleaf (velvetleaf; [2]) | Plant response rating, Velvetleaf (velvetleaf; [3]) | Velvetleaf plant response rating (0 to 10 scale) (velvetleaf; Preemergence, Rate 125 g/ha) | Velvetleaf plant response rating (velvetleaf; Preemergence, Rate 250 g/ha) | Velvetleaf plant response rating (velvetleaf; Preemergence, Rate 500 g/ha) | Velvetleaf plant response rating (velvetleaf; Rate 62 g/ha, Postemergence) | Plant response rating, Velvetleaf (velvetleaf; [4]) | Plant response rating, Blackgrass (blackgrass; [1]) | Plant response rating, Blackgrass (blackgrass; [3]) | Blackgrass plant response rating (blackgrass; Rate 62 g/ha, Postemergence)
2: B. signalgrass plant response rating (surinam grass; Preemergence, Rate 250 g/ha) | Corn plant response rating (corn; Preemergence, Rate 500 g/ha) | Plant response rating, Blackgrass (blackgrass; [2]) | Plant response rating, Blackgrass (blackgrass; [4])
1: Soybean plant response rating (soybean; Rate 62 g/ha, Postemergence) | Plant response rating, Crabgrass (crabgrass; [4]) | Blackgrass plant response rating (0 to 10 scale) (blackgrass; Preemergence, Rate 125 g/ha)
3: Plant response rating, Soybean (soybean; [1]) | Plant response rating, Giant foxtail (giant foxtail; [1]) | Plant response rating, Giant foxtail (giant foxtail; [2]) | Blackgrass plant response rating (blackgrass; Preemergence, Rate 250 g/ha)
4: Plant response rating, Soybean (soybean; [2]) | Wild oats plant response rating (wild oat; Preemergence, Rate 500 g/ha) | Plant response rating, Giant foxtail (giant foxtail; [4]) | Plant response rating, Bedstraw (bedstraw; Rate 250 g/ha, scale 0 to 10, 0 is no effect, 10 is complete control) | Plant response rating, Bedstraw (bedstraw; Rate 500 g/ha, scale 0 to 10, 0 no effect, 10 complete control)
10: Crabgrass plant response rating (crabgrass; Preemergence, Rate 500 g/ha) | Giant foxtail plant response rating (giant foxtail; Preemergence, Rate 500 g/ha)
